Reference: ChEMBL document CHEMBL5463724, “Data for DCP probe VZ185” (2023)
Calls of active or inactive are those of the source.

Legend:
Format in all cases: functional, cell-based
[1] = target: T1, Bromodomain-containing protein 7 (Homo sapiens, UniProt Q9NPI1); test: Degradation of BRD7 in RI-1 cells (8 h) (Western Blot degradation assay)
T1 sequence (Q9NPI1 whole entry): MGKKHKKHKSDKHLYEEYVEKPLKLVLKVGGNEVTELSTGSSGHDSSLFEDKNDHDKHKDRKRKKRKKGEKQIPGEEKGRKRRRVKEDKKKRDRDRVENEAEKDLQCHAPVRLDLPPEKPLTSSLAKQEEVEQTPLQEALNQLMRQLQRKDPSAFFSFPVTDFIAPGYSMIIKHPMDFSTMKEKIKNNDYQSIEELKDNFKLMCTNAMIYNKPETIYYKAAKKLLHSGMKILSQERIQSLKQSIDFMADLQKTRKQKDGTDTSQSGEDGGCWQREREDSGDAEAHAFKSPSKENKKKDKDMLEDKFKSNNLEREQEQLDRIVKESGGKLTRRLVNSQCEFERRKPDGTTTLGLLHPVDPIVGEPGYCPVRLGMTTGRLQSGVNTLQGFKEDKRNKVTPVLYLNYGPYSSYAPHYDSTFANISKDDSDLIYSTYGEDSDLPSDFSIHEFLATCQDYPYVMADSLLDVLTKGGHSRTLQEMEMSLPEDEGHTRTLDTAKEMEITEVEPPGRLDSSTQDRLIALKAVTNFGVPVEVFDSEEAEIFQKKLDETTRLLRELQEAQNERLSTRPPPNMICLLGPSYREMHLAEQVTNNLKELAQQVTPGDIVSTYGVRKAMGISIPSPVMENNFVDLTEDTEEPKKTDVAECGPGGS

EOL1 = test: Cell viability (EOL-1 cells) (CellTiterGlo); conditions: Homo sapiens
A204 = test: Cell viability (A204 cells) (CellTiterGlo); conditions: Homo sapiens

COc1cc(-c2cn(C)c(=O)c3cnccc23)cc(OC)c1CN1CCN(CCCCCOc2cc(-c3scnc3C)ccc2CNC(=O)[C@@H]2C[C@@H](O)CN2C(=O)[C@@H](NC(=O)C2(F)CC2)C(C)(C)C)CC1
active: DC50 [1] 4.5 nM | EC50 (EOL1) 3.4 nM | EC50 (A204) 39.8 nM
